# Data as given in PMC10989020, “Preclinical characterization of a non-peptidomimetic HIV protease inhibitor with improved metabolic stability” (Antimicrobial Agents and Chemotherapy, 2024).
# Like-named read-outs stand apart in the source and are kept apart here.
# Columns and labels:
# [1] = Metabolic stability in human liver microsomes; type: in vitro ADME
# HIV-1 IIIb = assay: 5-day cytoprotection antiviral assay in MT-4 cells; type: cell-based
# [2] = Cytotoxicity in uninfected MT-4 cells; type: cell-based, human; details: human, uninfected (mock infected) MT-4 T cells, MT-4 T cell line
# Protocol: (§1) Compound cytotoxicity assessment in MT-4 cells, primary CD4+ T lymphocytes, and MDMs was carried out using a protocol identical to the antiviral assay except uninfected cells were used and tested with higher concentration ranges of test compounds. Assessment of cytotoxicity in additional human cell lines (Gal-PC3, Gal-HepG2, HEp-2, Huh-7, MRC-5, HepG2-NTCP, Huh7-Lunet HCV 1b and 2a replicons, NHBE, A549-hACE2) and primary human PBMCs (resting and stimulated with PHA/IL-2) and hepatocytes have been described previously ([19]). For all cytotoxicity assays, the CC50 value for puromycin was determined as a positive internal control and to assess assay sensitivity in each cell type. The effect of tested compounds on cell viability was measured using a CellTiter-Glo readout, performed according to the manufacturer’s recommendations.
# MT-4 T cell line = assay: Cytotoxicity in uninfected MT-4 cells; type: cell-based, human; details: mock infected
# Protocol: as §1
# HIV-1 BaL [3] = assay: p24 production antiviral assay in CD4+ T-lymphocytes; type: cell-based
# Excerpt: (§2) Antiviral assays performed in HIV-1BaL infected CD4 +T-lymphocytes and monocyte-derived macrophages (MDMs) have been described previously ([18]). Cell-free supernatants derived from the CD4 +T cell and macrophage cultures were harvested 7- and 12-days post-infection, respectively, and the amount of HIV present was quantified by p24 antigen enzyme-linked immunosorbent assay (ELISA, Perkin Elmer, Waltham, MA) performed according to the manufacturer’s protocol.
# [4] = Cytotoxicity in CD4+ T-lymphocytes; type: cell-based; details: human, uninfected (mock infected) primary CD4+ T lymphocytes
# Protocol: as §1
# HIV-1 BaL [5] = assay: p24 production antiviral assay in monocyte-derived macrophages; type: cell-based
# Excerpt: as §2
# [6] = Cytotoxicity in monocyte-derived macrophages; type: cell-based; details: human, uninfected (mock infected) monocyte-derived macrophages
# Protocol: as §1
# [7] = test system: panel of 49 patient-derived HIV-1 reporter viruses with PI resistance-associated substitutions; type: cell-based; details: for isolates with complete loss of activity: of 49 PI-resistant clinical isolates
# [8] = test system: HIV-1LAI wild type and site-directed PR mutants; assay: microbe, parasite or virus in culture; type: cell-based
# [9] = single oral dose co-administered with a pharmacological boosting agent; cited from earlier work
# [10] = target: recombinant HIV-1 protease (Human immunodeficiency virus type 1 group M subtype B, UniProt P04585); assay: biochemical
# Protocol: For the HIV protease assay, recombinant HIV-1 protease expression, purification, and enzymatic assay using a fluorogenic readout were performed as previously described with some minor changes ([22]). […] After a 20-minute pre-incubation, the enzymatic reaction was initiated by the addition of the fluorogenic substrate to a final concentration of 40 µM and a final volume of 100 µL. The reaction was measured over 20 minutes on a Tecan Infinite M1000 plate reader using excitation and detection wavelengths of 320 nm and 420 nm, respectively.
# [11] = test system: HIV-1 mutants resistant to NRTIs, NNRTIs, INSTIs
# Cytotoxicity in Gal-PC3 = type: cell-based; details: human, Gal-PC3 cells
# Protocol: as §1
# [12] = Cytotoxicity in Gal-HepG2; type: cell-based; details: human, Gal-HepG2 cells
# Protocol: as §1
# Cytotoxicity in HEp-2 = type: cell-based; details: human, HEp-2 cells
# Protocol: as §1
# Cytotoxicity in Huh-7 = type: cell-based; details: human, Huh-7 cells
# Protocol: as §1
# Cytotoxicity in MRC-5 = type: cell-based; details: human, MRC-5 cells
# Protocol: as §1
# [13] = Cytotoxicity in primary human hepatocytes; type: cell-based
# Protocol: as §1
# [14] = Cytotoxicity in unstimulated PBMCs; type: cell-based; details: human, unstimulated (resting) PBMCs
# Protocol: as §1
# [15] = Cytotoxicity in stimulated PBMCs; type: cell-based; details: human
# Protocol: as §1
# [16] = Cytotoxicity across human cell types (summary ranges); type: cell-based; details: human, human cell lines and primary cells (all cell types tested); across all of the cell types tested; read-out: mean CC50 range
# Protocol: as §1
# [17] = test system: 20 HIV-1 clinical isolates; assay: Antiviral assay in PBMCs with HIV-1 clinical isolates (RT endpoint); type: cell-based; details: Human immunodeficiency virus 1, PBMC
# Protocol: (§3) Antiviral assays using fresh human PBMCs independently infected with a panel of clinical HIV-1 and HIV-2 isolates were performed by Southern Research as a contracted research study and assessed 7 days post-infection using reverse transcriptase (RT) endpoint assay. Antiviral assays using HIV-1 reporter viruses containing patient-derived sequences encoding all of PR and a portion of RT (amino acids 1–313) and conferring resistance to FDA-approved HIV PIs were performed by Monogram Biosciences Inc. (South San Francisco, CA) using their previously described Phenosense assay ([25]).
# two HIV-2 isolates = assay: Antiviral assay in PBMCs with HIV-2 clinical isolates (RT endpoint); type: cell-based; details: Human immunodeficiency virus 2, PBMC, 168 h, 7-day, RT activity
# Protocol: as §3
# HIV-1IIIb = assay: Two-drug in vitro combination assay in MT-2 cells (MacSynergy II); type: cell-based; details: for Combination effect: pairwise combination with GS-9770; for Antagonism volume / Synergy volume: pairwise combination with GS-9770, 99% confidence, MT-2/HIV-1IIIb
# Protocol: Anti-HIV-1 assays evaluating the in vitro antiviral effect of two-drug combinations were performed in MT-2 cells as previously described ([26]). Data were normalized to positive and negative controls in each plate and expressed as a percentage of protection from CPE-dependent cell death and analyzed with the MacSynergy II software. Combination data were analyzed at the 99% confidence level, with synergy/antagonism volumes defined as follows: high synergy (>100 µM^2%), moderate synergy (50 to <100 uM^2%), additivity (>−50 to <50 µM^2%), and antagonism (<−50 µM^2%).
# [18] = Human immunodeficiency virus 1, PR L24I M46L A77I V82A
# [19] = Human immunodeficiency virus 1, PR L24I M46L I64V A77I V82A
# [20] = Human immunodeficiency virus 1, PR M46L A77I V82A
# [21] = Human immunodeficiency virus 1, PR V82A
# [22] = Human immunodeficiency virus 1, Wild type (WT) HIV-1LAI
structure (smiles),measurement,setting,value
"COC(=O)N[C@H](C(=O)N[C@@H](Cc1ccccc1)[C@@H](O)CN(Cc1ccc(-c2ccccn2)cc1)NC(=O)[C@@H](NC(=O)OC)C(C)(C)C)C(C)(C)C [ATV, atazanavir]",Eh% (percent predicted hepatic extraction),[1],63%
same,Predicted CL (predicted human clearance),[1],13 mL/min/kg
same,half-life,[1]; read-out: T½ in the presence of human liver microsomes,24 min
same,EC50,"HIV-1 IIIb; Human immunodeficiency virus 1, IIIB, T-cell, 120 h",11 ± 3 nM
same,SI (CC50/EC50 ratio),HIV-1 IIIb; MT-4 T cell line,"4,700"
same,95% effective concentration (EC95),HIV-1 IIIb; calculated from MT-4/HIV-1IIIb EC50 and Hill coefficient,19.5 nM
same,CC50,[2],> 50000 nM
same,CC50,MT-4 T cell line,51000 ± 8000 nM
same,SI (CC50/EC50 ratio),HIV-1 BaL [3],">12,000"
same,EC50,"HIV-1 BaL [3]; Human immunodeficiency virus 1, T-lymphocyte, HIV-1BaL infected",4.3 ± 1.9 nM
same,CC50,[4],> 50000 nM
same,SI (CC50/EC50 ratio),HIV-1 BaL [5],">3,100"
same,EC50,"HIV-1 BaL [5]; Human immunodeficiency virus 1, Macrophage, HIV-1BaL infected",16 ± 12 nM
same,CC50,[6],> 50000 nM
same,data points with fold change in EC50 above limit,[7],five
same,mean fold change (FC) in EC50 vs wild-type HIV-1 (geometric mean),[7]; 49 PI-resistant reporter viruses,9.1 fold
same,isolates with complete loss of activity,[7],3
same,isolates with greater than 10-fold loss in susceptibility,"[7]; of 49 isolates, cutoff 10-fold",16
same,EC50,[8]; [18],4.2 ± 0.8 nM
same,EC50,[8]; [19],11.7 ± 1.4 nM
same,EC50,[8]; [20],6.9 ± 1.8 nM
same,EC50,[8]; [21],7.6 ± 3.3 nM
same,EC50,[8]; [22],5.7 ± 3.6 nM
same,fold-change relative to WT,[8]; PR L24I M46L A77I V82A,0.7 fold
same,fold-change relative to WT,[8]; PR L24I M46L I64V A77I V82A,2.1 fold
same,fold-change relative to WT,[8]; PR M46L A77I V82A,1.2 fold
same,fold-change relative to WT,[8]; PR V82A,1.3 fold
same,fold-change relative to WT,[8]; Wild type (WT) HIV-1LAI,1.0 fold
same,plasma half-life in humans,[9],516 min
same,Ki,[10],0.023 nM
"O=C1Nc2ccc(Cl)cc2[C@@](C#CC2CC2)(C(F)(F)F)O1 [EFV, efavirenz]",EC50,[8]; [18],1.1 ± 0.1 nM
same,EC50,[8]; [19],1 ± 0.2 nM
same,EC50,[8]; [20],1 ± 0.2 nM
same,EC50,[8]; [21],1.2 ± 0.6 nM
same,EC50,[8]; [22],1.3 ± 0.7 nM
same,fold-change relative to WT,[8]; PR L24I M46L A77I V82A,0.9 fold
same,fold-change relative to WT,[8]; PR L24I M46L I64V A77I V82A,0.8 fold
same,fold-change relative to WT,[8]; PR M46L A77I V82A,0.8 fold
same,fold-change relative to WT,[8]; PR V82A,1.0 fold
same,fold-change relative to WT,[8]; Wild type (WT) HIV-1LAI,1.0 fold
same,Fold resistance (mutant/wildtype EC50 ratio),[11]; K103N,14 ± 12
same,Fold resistance (mutant/wildtype EC50 ratio),[11]; K103N+Y181C,11 ± 5
same,Fold resistance (mutant/wildtype EC50 ratio),[11]; L100I+K103N,>30
same,Fold resistance (mutant/wildtype EC50 ratio),[11]; Y181C,3.5 ± 0.6
same,Fold resistance (mutant/wildtype EC50 ratio),[11]; Y188L,>30
"COc1cc2c(cc1Cc1cccc(Cl)c1F)c(=O)c(C(=O)O)cn2[C@H](CO)C(C)C [EVG, elvitegravir]",Fold resistance (mutant/wildtype EC50 ratio),[11]; E92Q+N155H,>50
same,Fold resistance (mutant/wildtype EC50 ratio),[11]; E138K+Q148K,>50
same,Fold resistance (mutant/wildtype EC50 ratio),[11]; G140S+Q148R,>50
same,Fold resistance (mutant/wildtype EC50 ratio),[11]; Q148+N155H,>50
"COc1ccc(C[C@H](N)C(=O)N[C@H]2[C@@H](O)[C@H](n3cnc4c(N(C)C)ncnc43)O[C@@H]2CO)cc1 [Puromycin, puromycin]",CC50,Cytotoxicity in Gal-PC3,450 ± 170 nM
same,CC50,[12],1400 ± 800 nM
same,CC50,Cytotoxicity in HEp-2,600 ± 300 nM
same,CC50,Cytotoxicity in Huh-7,800 ± 700 nM
same,CC50,Cytotoxicity in MRC-5,310 ± 200 nM
same,CC50,[13],1600 ± 200 nM
same,CC50,[14],540 ± 210 nM
same,CC50,[15],800 ± 150 nM
same,CC50,[16],310 to 1600 nM
"CC(C)CN(C[C@@H](O)[C@H](Cc1ccccc1)NC(=O)O[C@H]1CO[C@H]2OCC[C@H]21)S(=O)(=O)c1ccc(N)cc1 [DRV, darunavir]",EC50,"[17]; 168 h, read-out: mean EC50",3.2 nM
same,EC50,[17]; read-out: EC50 range,0.8 to 9.2 nM
same,EC50,two HIV-2 isolates,8.5 nM
same,isolates with complete loss of activity,[7],5
"CC(C)OC(=O)[C@H](C)N[P@](=O)(CO[C@H](C)Cn1cnc2c(N)ncnc21)Oc1ccccc1 [TAF, tenofovir alafenamide]",Combination effect,HIV-1IIIb,Highly synergistic
same,Antagonism volume,HIV-1IIIb,−4 ± 7 µM^2.%
same,Synergy volume,HIV-1IIIb,166 ± 51 µM^2.%
"Cc1cc(/C=C/C#N)cc(C)c1Nc1ccnc(Nc2ccc(C#N)cc2)n1 [RPV, rilpivirine]",Combination effect,HIV-1IIIb,Highly synergistic
same,Antagonism volume,HIV-1IIIb,0 ± 0 µM^2.%
same,Synergy volume,HIV-1IIIb,184 ± 65 µM^2.%
"CC(C)(C#Cc1ccc(-c2ccc(Cl)c3c(NS(C)(=O)=O)nn(CC(F)(F)F)c23)c([C@H](Cc2cc(F)cc(F)c2)NC(=O)Cn2nc(C(F)(F)F)c3c2C(F)(F)[C@@H]2C[C@H]32)n1)S(C)(=O)=O [LEN, lenacapavir]",Combination effect,HIV-1IIIb,Highly synergistic
same,Antagonism volume,HIV-1IIIb,−0.6 ± 1.7 µM^2.%
same,Synergy volume,HIV-1IIIb,201 ± 111 µM^2.%
"O=C(NCc1c(F)cc(F)cc1F)c1cn2c(c(O)c1=O)C(=O)N1[C@H]3CC[C@H](C3)O[C@@H]1C2 [BIC, bictegravir]",Combination effect,HIV-1IIIb,Highly synergistic
same,Antagonism volume,HIV-1IIIb,−11 ± 13 µM^2.%
same,Synergy volume,HIV-1IIIb,156 ± 49 µM^2.%
"Nc1nc(=O)n([C@@H]2CS[C@H](CO)O2)cc1F [FTC, emtricitabine]",Combination effect,HIV-1IIIb,Highly synergistic
same,Antagonism volume,HIV-1IIIb,−8 ± 11 µM^2.%
same,Synergy volume,HIV-1IIIb,139 ± 24 µM^2.%
same,Fold resistance (mutant/wildtype EC50 ratio),[11]; 6TAMs,23 ± 21
same,Fold resistance (mutant/wildtype EC50 ratio),[11]; K65R,12 ± 6
same,Fold resistance (mutant/wildtype EC50 ratio),[11]; M184V,>141
